Results published in article PMC7360687, “The Regulator PltZ Regulates a Putative ABC Transporter System PltIJKNOP of Pseudomonas aeruginosa ATCC 27853 in Response to the Antimicrobial 2,4-Diacetylphloroglucinol” (Frontiers in Microbiology, 2020).

Target: T1, PltZ
T1 construct: full gene cloned in pET-28b-derived vector, E. coli BL21 (DE3), Ni-NTA purified (His tag implied)
Test: isothermal titration calorimetry
Parameters: species or system Pseudomonas aeruginosa
Conditions: 25 °C; 20 mM Tris pH 8.0, 100 mM NaCl; independent binding model; read-out: binding constant

CC(=O)c1c(O)cc(O)c(C(C)=O)c1O [2,4-diacetylphloroglucinol]
Kd: ~190 nM
